Data on 33 compounds can be found in patent publication US11485726B2, “Compound for inhibiting and degrading tyrosine protein kinase ALK” (SHANGHAI MEIZER PHARMACEUTICALS CO., LTD., priority 2017, dated 2022).

Test [1] has as its target T1, ALK kinase (Homo sapiens, UniProt Q9UM73). In words: ALK protein degradation activity by Western blot in H2228 cells. Type of test: cell-based. The settings on record: NCI-H2228, compound 1 μM, treatment for 24 hours, degradation rate by Western blot. Details: H2228 cell lines (human non-small cell line lung cancer cells, available from ATCC); host or cells: H2228 (human non-small cell lung cancer cells); the other entry of the earlier key: EML4 (Q9HC35, Echinoderm microtubule-associated protein-like 4).
Target sequence in this assay (Q9UM73 with tags, fused parts or gaps): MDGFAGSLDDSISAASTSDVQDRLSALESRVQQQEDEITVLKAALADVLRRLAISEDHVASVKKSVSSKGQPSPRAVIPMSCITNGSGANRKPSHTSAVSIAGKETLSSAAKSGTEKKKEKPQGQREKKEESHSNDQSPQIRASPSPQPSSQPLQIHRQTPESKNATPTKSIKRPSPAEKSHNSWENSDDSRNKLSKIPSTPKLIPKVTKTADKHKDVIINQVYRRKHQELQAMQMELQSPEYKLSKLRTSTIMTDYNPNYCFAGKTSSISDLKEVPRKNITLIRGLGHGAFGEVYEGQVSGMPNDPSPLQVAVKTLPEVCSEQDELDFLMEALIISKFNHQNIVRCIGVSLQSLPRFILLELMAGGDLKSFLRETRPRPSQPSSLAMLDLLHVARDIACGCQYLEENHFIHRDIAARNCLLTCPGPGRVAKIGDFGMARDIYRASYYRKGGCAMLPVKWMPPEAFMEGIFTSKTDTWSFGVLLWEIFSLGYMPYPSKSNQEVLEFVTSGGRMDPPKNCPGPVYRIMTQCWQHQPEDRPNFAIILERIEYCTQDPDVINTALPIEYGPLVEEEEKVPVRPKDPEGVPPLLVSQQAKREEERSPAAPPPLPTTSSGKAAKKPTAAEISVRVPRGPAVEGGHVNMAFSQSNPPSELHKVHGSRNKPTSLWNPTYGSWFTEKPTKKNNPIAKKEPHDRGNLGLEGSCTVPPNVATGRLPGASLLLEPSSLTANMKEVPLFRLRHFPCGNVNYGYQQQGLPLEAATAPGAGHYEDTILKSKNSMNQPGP

The target in test [2] is T1, ALK kinase. In words: ALK inhibition activity by Caliper assay. Type of test: biochemical. To be noted: compound 100 nM. The protocol:
Example 5 Testing the ALK Inhibition Activity of Compound by Caliper Assay
The experimental steps were as follows:
Preparation of 1×kinase reaction buffer (50 mM HEPES, PH 7.5; 0.0015% Brij-35) and kinase reaction termination solution (100 mM HEPES, PH 7.5; 0.0015% Brij-35; 0.2% Coating Reagent; 50 mM EDTA);
Preparation of experimental samples: 100 μl of 5 μM sample solution (dissolved in 100% DMSO) was added to a 96-well plate to obtain a 50×sample solution. As controls, two wells containing only 100 μL of 100% DMSO were set on the same plate. One was served as a control without samples and the other was served as a control without enzymes. 10 μL of sample and 90 μL, of 1×kinase reaction buffer were added to a 96-well plate as a transfer plate. The transfer plate was shaken for 10 minutes.
Preparation of the test plate: taking 5 μL of each of the prepared samples from the 96-well transfer plate into a 384-well plate.
Kinase reaction: to 5 μL of 5×compound solution (dissolved in DMSO, diluted 10 times with water) was added 10 μL of 2.5×ALK kinase solution (kinase was diluted with 1×kinase reaction buffer), which was incubated at room temperature for 10 min, and then 10 μL of 2.5×substrate peptide solution (FAM-labeled peptide and ATP were diluted with 1×kinase reaction buffer) was added.
Termination of the kinase reaction: 25 μL of kinase reaction termination solution was added after being reacted at 28° C. for a period of time.
The fluorescence (F) was tested on a Caliper and data was collected.
The inhibition rate of kinase activity was calculated: the percent inhibition rate of kinase activity=(FDMSO control−Fsample)/(FDMSO control−Fnegative control)×100, with DMSO as the solution control, and no kinase as the negative control.
Target sequence in this assay (Q9UM73 19-1620): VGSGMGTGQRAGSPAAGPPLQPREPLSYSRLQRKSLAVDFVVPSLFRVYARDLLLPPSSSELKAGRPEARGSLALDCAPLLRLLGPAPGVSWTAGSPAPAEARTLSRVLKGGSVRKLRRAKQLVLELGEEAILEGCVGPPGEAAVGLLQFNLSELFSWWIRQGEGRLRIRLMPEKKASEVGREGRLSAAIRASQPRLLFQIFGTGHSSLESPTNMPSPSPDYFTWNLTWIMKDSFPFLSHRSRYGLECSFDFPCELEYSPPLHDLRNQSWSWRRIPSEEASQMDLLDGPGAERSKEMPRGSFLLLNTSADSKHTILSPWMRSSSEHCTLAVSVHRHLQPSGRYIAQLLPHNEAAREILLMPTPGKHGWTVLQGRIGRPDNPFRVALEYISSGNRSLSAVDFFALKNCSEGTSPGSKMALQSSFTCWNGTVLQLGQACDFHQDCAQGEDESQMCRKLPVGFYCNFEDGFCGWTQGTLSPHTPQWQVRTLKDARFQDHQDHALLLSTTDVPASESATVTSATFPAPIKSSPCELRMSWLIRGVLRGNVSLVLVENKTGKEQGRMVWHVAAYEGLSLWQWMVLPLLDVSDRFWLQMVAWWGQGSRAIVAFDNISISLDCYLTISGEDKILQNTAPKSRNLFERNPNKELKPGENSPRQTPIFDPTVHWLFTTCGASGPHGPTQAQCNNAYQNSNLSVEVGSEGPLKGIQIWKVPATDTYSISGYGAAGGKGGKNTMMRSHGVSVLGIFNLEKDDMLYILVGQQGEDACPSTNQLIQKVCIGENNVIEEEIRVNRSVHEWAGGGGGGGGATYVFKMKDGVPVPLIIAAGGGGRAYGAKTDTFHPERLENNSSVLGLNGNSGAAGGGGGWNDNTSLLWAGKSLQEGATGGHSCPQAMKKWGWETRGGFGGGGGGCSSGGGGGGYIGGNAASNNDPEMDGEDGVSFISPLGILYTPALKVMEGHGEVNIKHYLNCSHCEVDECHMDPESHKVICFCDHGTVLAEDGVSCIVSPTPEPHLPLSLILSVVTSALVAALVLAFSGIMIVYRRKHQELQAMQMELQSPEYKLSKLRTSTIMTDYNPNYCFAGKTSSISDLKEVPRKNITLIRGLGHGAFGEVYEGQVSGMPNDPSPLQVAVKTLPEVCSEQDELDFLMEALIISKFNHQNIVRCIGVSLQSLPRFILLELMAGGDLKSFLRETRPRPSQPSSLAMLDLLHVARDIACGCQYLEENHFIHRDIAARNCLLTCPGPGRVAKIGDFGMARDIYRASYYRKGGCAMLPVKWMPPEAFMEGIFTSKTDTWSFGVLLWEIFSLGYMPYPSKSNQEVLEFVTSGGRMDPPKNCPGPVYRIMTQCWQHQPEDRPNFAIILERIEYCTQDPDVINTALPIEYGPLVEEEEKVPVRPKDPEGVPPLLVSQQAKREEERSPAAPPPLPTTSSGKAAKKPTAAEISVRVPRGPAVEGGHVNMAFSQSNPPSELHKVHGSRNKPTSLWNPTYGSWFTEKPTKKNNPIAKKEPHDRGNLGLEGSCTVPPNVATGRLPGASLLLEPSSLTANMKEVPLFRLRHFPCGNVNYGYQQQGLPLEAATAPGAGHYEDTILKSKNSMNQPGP

In test [3] the test system is SU-DHL-1 cells. In words: Inhibition of proliferation of SU-DHL-1 cells by CTG assay. Type of test: cell-based. To be noted: Homo sapiens, compound 100 μM, 72 hours. The protocol: Example 7 Testing the Inhibitory Effect of Formula Compound on the Proliferation of SU-DHL-1 Cells by CTG Assay
The inhibitory effect of the compound on the proliferation of SU-DHL-1 cells ([…]) was determined by the […] method in vitro. The Cells were cultured and the compound was prepared referring to the method of […], and the culture time after administration was 72 hours. Subsequently, an appropriate amount of CTG reagent was added, the luminescence value was measured, and the inhibition rate was calculated.

Regarding `Cc1cc(Nc2ncc(Cl)c(Nc3ccccc3S(=O)(=O)C(C)C)n2)c(OC(C)C)cc1C1CCN(CCOCCOCCOCCOCCOCCOc2cccc3c2C(=O)N(C2CCC(=O)NC2=O)C3=O)CC1` (centres unmarked) [Compound 26], the inhibition (usually the percentage by which the read-out fell short of the control) at 1 µM in test [1] is 50 to 90%. Same read-out and setting: with `Cc1cc(Nc2ncc(Cl)c(Nc3ccccc3S(=O)(=O)C(C)C)n2)c(OC(C)C)cc1C1CCN(CCOCCOCCOCCOCCNc2cccc3c2C(=O)N(C2CCC(=O)NC2=O)C3=O)CC1` (centres unmarked) [Compound 31] the figure was over 90%; with `Cc1cc(Nc2ncc(Cl)c(Nc3ccccc3S(=O)(=O)C(C)C)n2)c(OC(C)C)cc1C1CCN(CCCCCOc2cccc3c2C(=O)N(C2CCC(=O)NC2=O)C3=O)CC1` (centres unmarked) [Compound 22], 50 to 90%. `Cc1cc(Nc2ncc(Cl)c(Nc3ccccc3S(=O)(=O)C(C)C)n2)c(OC(C)C)cc1C1CCN(CCOCCNc2cccc3c2C(=O)N(C2CCC(=O)NC2=O)C3=O)CC1` (centres unmarked) [Compound 27]: the inhibition at 1 µM in test [1] is over 90%.

For `Cc1cc(Nc2ncc(Cl)c(Nc3ccccc3S(=O)(=O)C(C)C)n2)c(OC(C)C)cc1C1CCN(CC(=O)NCCOCCOCCOCCOCCOc2cccc3c2C(=O)N(C2CCC(=O)NC2=O)C3=O)CC1` (centres unmarked) [Compound 43], the inhibition at 1 µM in test [1] was in the range of 50 to 90%.

In test [1], `Cc1cc(Nc2ncc(Cl)c(Nc3ccccc3S(=O)(=O)C(C)C)n2)c(OC(C)C)cc1C1CCN(CCOCCOCCOCCOCCOCCNc2cccc3c2C(=O)N(C2CCC(=O)NC2=O)C3=O)CC1` (centres unmarked) [Compound 32] gave an inhibition at 1 µM of 50 to 90%. Still for that read-out and setting: the value for `Cc1cc(Nc2ncc(Cl)c(Nc3ccccc3S(=O)(=O)C(C)C)n2)c(OC(C)C)cc1C1CCN(CCOCCOc2cccc3c2C(=O)N(C2CCC(=O)NC2=O)C3=O)CC1` (centres unmarked) [Compound 21] was 50 to 90%; that for `Cc1cc(Nc2ncc(Cl)c(Nc3ccccc3S(=O)(=O)C(C)C)n2)c(OC(C)C)cc1C1CCN(CC(=O)NCCOCCOCCNc2cccc3c2C(=O)N(C2CCC(=O)NC2=O)C3=O)CC1` (centres unmarked) [Compound 35] was over 90%. Take `Cc1cc(Nc2ncc(Cl)c(Nc3ccccc3S(=O)(=O)C(C)C)n2)c(OC(C)C)cc1C1CCN(CCOCCOCCNc2cccc3c2C(=O)N(C2CCC(=O)NC2=O)C3=O)CC1` (centres unmarked) [Compound 45]: the inhibition at 0.1 µM in test [2] came out at 98%. The compound also registered an inhibition at 100 µM in test [3] of 97%. Besides, in test [1], the inhibition at 1 µM was over 90%. Take `Cc1cc(Nc2ncc(Cl)c(Nc3ccccc3S(=O)(=O)C(C)C)n2)c(OC(C)C)cc1C1CCN(CC(=O)NCCOCCOCCOCCOCCOCCOc2cccc3c2C(=O)N(C2CCC(=O)NC2=O)C3=O)CC1` (centres unmarked) [Compound 44]: the inhibition at 1 µM in test [1] was 50 to 90%.

The compound `Cc1cc(Nc2ncc(Cl)c(Nc3ccccc3S(=O)(=O)C(C)C)n2)c(OC(C)C)cc1C1CCN(CCCCC(=O)Nc2cccc3c2C(=O)N(C2CCC(=O)NC2=O)C3=O)CC1` (centres unmarked) [Compound 16] came in with an inhibition at 1 µM in test [1] of over 90%. The same measure, in the same setting: with `Cc1cc(Nc2ncc(Cl)c(Nc3ccccc3S(=O)(=O)C(C)C)n2)c(OC(C)C)cc1C1CCN(CCCCCNc2cccc3c2C(=O)N(C2CCC(=O)NC2=O)C3=O)CC1` (centres unmarked) [Compound 28] the figure was over 90%; with `Cc1cc(Nc2ncc(Cl)c(Nc3ccccc3S(=O)(=O)C(C)C)n2)c(OC(C)C)cc1C1CCN(CC(=O)NCCOCCOc2cccc3c2C(=O)N(C2CCC(=O)NC2=O)C3=O)CC1` (centres unmarked) [Compound 40], over 90%; with `Cc1cc(Nc2ncc(Cl)c(Nc3ccccc3S(=O)(=O)C(C)C)n2)c(OC(C)C)cc1C1CCN(CCCCOc2cccc3c2C(=O)N(C2CCC(=O)NC2=O)C3=O)CC1` (centres unmarked) [Compound 23], 50 to 90%. Same read-out and setting: the value for `Cc1cc(Nc2ncc(Cl)c(Nc3ccccc3S(=O)(=O)C(C)C)n2)c(OC(C)C)cc1C1CCN(CC(=O)NCCOc2cccc3c2C(=O)N(C2CCC(=O)NC2=O)C3=O)CC1` (centres unmarked) [Compound 39] was over 90%.

Take `Cc1cc(Nc2ncc(Cl)c(Nc3ccccc3S(=O)(=O)C(C)C)n2)c(OC(C)C)cc1C1CCN(CC(=O)NCCOCCOCCOCCOCCNc2cccc3c2C(=O)N(C2CCC(=O)NC2=O)C3=O)CC1` (centres unmarked) [Compound 37]: the inhibition at 1 µM in test [1] lay in the range of 50 to 90%. As for `Cc1cc(Nc2ncc(Cl)c(Nc3ccccc3S(=O)(=O)C(C)C)n2)c(OC(C)C)cc1C1CCN(C(=O)COCCOCCNc2cccc3c2C(=O)N(C2CCC(=O)NC2=O)C3=O)CC1` (centres unmarked) [Compound 10], the inhibition at 0.1 µM in test [2] was 99%. Further, the inhibition at 1 µM in test [1] was over 90%. In test [1], `Cc1cc(Nc2ncc(Cl)c(Nc3ccccc3S(=O)(=O)C(C)C)n2)c(OC(C)C)cc1C1CCN(CCC(=O)Nc2cccc3c2C(=O)N(C2CCC(=O)NC2=O)C3=O)CC1` (centres unmarked) [Compound 18] registered an inhibition at 1 µM of over 90%. Same read-out and setting: the value for `Cc1cc(Nc2ncc(Cl)c(Nc3ccccc3S(=O)(=O)C(C)C)n2)c(OC(C)C)cc1C1CCN(CC(=O)NCCOCCOCCOCCNc2cccc3c2C(=O)N(C2CCC(=O)NC2=O)C3=O)CC1` (centres unmarked) [Compound 36] was over 90%. As for `Cc1cc(Nc2ncc(Cl)c(Nc3ccccc3S(=O)(=O)C(C)C)n2)c(OC(C)C)cc1C1CCN(S(=O)(=O)CCCCCOc2cccc3c2C(=O)N(C2CCC(=O)NC2=O)C3=O)CC1` (centres unmarked) [Compound 13], the inhibition at 0.1 µM in test [2] was found to be 69%. Besides, the inhibition at 1 µM in test [1] was over 90%. In test [2], `Cc1cc(Nc2ncc(Cl)c(Nc3ccccc3S(=O)(=O)C(C)C)n2)c(OC(C)C)cc1C1CCN(CCOCCOCCOCCOc2cccc3c2C(=O)N(C2CCC(=O)NC2=O)C3=O)CC1` (centres unmarked) [Compound 15] yielded an inhibition at 0.1 µM of 95%. In test [3], this compound registered an inhibition at 100 µM of 100%. The inhibition at 1 µM in test [1] was over 90%. Taken in the same sequence, the figures for `Cc1cc(Nc2ncc(Cl)c(Nc3ccccc3S(=O)(=O)C(C)C)n2)c(OC(C)C)cc1C1CCN(CCOCCOCCOc2cccc3c2C(=O)N(C2CCC(=O)NC2=O)C3=O)CC1` (centres unmarked) [Compound 7] were 97%, 98% and over 90%. As to `Cc1cc(Nc2ncc(Cl)c(Nc3ccccc3S(=O)(=O)C(C)C)n2)c(OC(C)C)cc1C1CCN(CC(=O)NCCOCCOCCOCCOCCOCCNc2cccc3c2C(=O)N(C2CCC(=O)NC2=O)C3=O)CC1` (centres unmarked) [Compound 38], in test [1], the inhibition at 1 µM was in the range of 50 to 90%. Take `Cc1cc(Nc2ncc(Cl)c(Nc3ccccc3S(=O)(=O)C(C)C)n2)c(OC(C)C)cc1C1CCN(CCOCCOCCOCCC(=O)Nc2cccc3c2C(=O)N(C2CCC(=O)NC2=O)C3=O)CC1` (centres unmarked) [Compound 20]: in test [1], the inhibition at 1 µM is over 90%. Same read-out and setting: the value for `Cc1cc(Nc2ncc(Cl)c(Nc3ccccc3S(=O)(=O)C(C)C)n2)c(OC(C)C)cc1C1CCN(CC(=O)NCCNc2cccc3c2C(=O)N(C2CCC(=O)NC2=O)C3=O)CC1` (centres unmarked) [Compound 33] was over 90%. The same measure, in the same setting: with `Cc1cc(Nc2ncc(Cl)c(Nc3ccccc3S(=O)(=O)C(C)C)n2)c(OC(C)C)cc1C1CCN(CC(=O)NCCOCCOCCOc2cccc3c2C(=O)N(C2CCC(=O)NC2=O)C3=O)CC1` (centres unmarked) [Compound 41] the figure was over 90%. Still for that read-out and setting: with `Cc1cc(Nc2ncc(Cl)c(Nc3ccccc3S(=O)(=O)C(C)C)n2)c(OC(C)C)cc1C1CCN(CCCCNc2cccc3c2C(=O)N(C2CCC(=O)NC2=O)C3=O)CC1` (centres unmarked) [Compound 29] the figure was 50 to 90%.

For the compound `Cc1cc(Nc2ncc(Cl)c(Nc3ccccc3S(=O)(=O)C(C)C)n2)c(OC(C)C)cc1C1CCN(CCCNc2cccc3c2C(=O)N(C2CCC(=O)NC2=O)C3=O)CC1` (centres unmarked) [Compound 30], in test [1], the inhibition at 1 µM is 50 to 90%. On to `Cc1cc(Nc2ncc(Cl)c(Nc3ccccc3S(=O)(=O)C(C)C)n2)c(OC(C)C)cc1C1CCN(CC(=O)NCCOCCOCCOCCOc2cccc3c2C(=O)N(C2CCC(=O)NC2=O)C3=O)CC1` (centres unmarked) [Compound 42], for which, in test [1], the inhibition at 1 µM was over 90%. Turning to `Cc1cc(Nc2ncc(Cl)c(Nc3ccccc3S(=O)(=O)C(C)C)n2)c(OC(C)C)cc1C1CCN(CCOCCOCCOCCOCCOc2cccc3c2C(=O)N(C2CCC(=O)NC2=O)C3=O)CC1` (centres unmarked) [Compound 25], the inhibition at 1 µM in test [1] was over 90%.

`Cc1cc(Nc2ncc(Cl)c(Nc3ccccc3S(=O)(=O)C(C)C)n2)c(OC(C)C)cc1C1CCN(CCOCCOCCC(=O)Nc2cccc3c2C(=O)N(C2CCC(=O)NC2=O)C3=O)CC1` (centres unmarked) [Compound 19]: the inhibition at 1 µM in test [1] was over 90%. The same measure, in the same setting: the value for `Cc1cc(Nc2ncc(Cl)c(Nc3ccccc3S(=O)(=O)C(C)C)n2)c(OC(C)C)cc1C1CCN(CCCOc2cccc3c2C(=O)N(C2CCC(=O)NC2=O)C3=O)CC1` (centres unmarked) [Compound 24] was 50 to 90%; that for `Cc1cc(Nc2ncc(Cl)c(Nc3ccccc3S(=O)(=O)C(C)C)n2)c(OC(C)C)cc1C1CCN(CCCC(=O)Nc2cccc3c2C(=O)N(C2CCC(=O)NC2=O)C3=O)CC1` (centres unmarked) [Compound 17] was over 90%.
